This note sets out measurements from US6429291B1, “Hyaluronan receptor protein” (priority 1994, dated 2002).

One assay deals with Human neutrophils. As to the kind of experiment: Neutrophil chemotaxis to IL-8 (modified Boyden chamber). It is filed as cell-based. Particulars: 100 ng/ml IL-8. The method, then:
Human neutrophils were obtained from peripheral blood samples of normal volunteers and mixed in ACD solution (0.085 M trisodium citrate, 0.065 M citric acid, 2% dextrose) to prevent clotting. Five percent dextran was added and the separated plasma and white blood cells were removed. The cells were washed twice in PBS, pH 7.2 and a Ficoll gradient was used to separate the lymphocytes. The isolated neutrophils were then washed and resuspended in PBS. Red cells were lysed by brief exposure to hypotonic PBS.
(§1) Chemotaxis was stimulated using either bacterial endotoxin-activated mouse serum (AS), prepared according to Stevenson et al. (1981) for macrophages and macrophage cell lines, or 100 ng/ml interleukin-8 (IL-8) for neutrophils. Heat-inactivated serum (56° C. for 20 mintes) or medium served as negative controls respectively. The chemotactic assay used was a colorometric assay described in Shi et al., (1993). […] The number of displaced cells was quantified by the addition of 3-(4.5-dimethylthiazol-2-yl)-2,5-[…] tetrazolium bromide (MTT) to a final concentration of 250 μg/ml that was incubated at 37° C. for 4 hours. […] The plate was analysed within 2 hours on a microtiter plate ELISA reader with a filter of 540 nm. […]

In another assay the test system is macrophage cell line S1. As to the kind of experiment: Macrophage chemotaxis to endotoxin-activated mouse serum, S1. It is filed as cell-based. How it is done:
(§2) The macrophage cell lines S1 and WEHI-3 (Branch et al., 1989) were used to analyze the effect of antibodies and synthetic peptide on macrophage chemotaxis to endotoxin-activated mouse serum (AS). These cells lines were also maintained in DME with 10% FCS and 20 mM Hepes buffer, pH 7.2 at 37° C. and 5% CO2 in air.
as §1, with “(1993). Briefly, a 96-well chemotaxis chamber with a lower recess large enough to hold a microtiter plate (Neuro Probe, stock#MBA96) and a 5 μm framed filter (Neuro Probe, stock#PFD5/A) were used. The microtiter plate was filled with chemoattractants and controls and placed in the recess of the chemotaxis chamber.” for “(1993).”

Assay [1] has as its system human breast cancer cell lines. In words: Locomotion of human breast cancer cell lines (timelapse image analysis). Particulars: R3 5 μg/ml; peptide I 2 μg/ml; P<0.001. In kind it is cell-based. The method, then:
Cells were cultured as described above. For cell locomotion studies, aliquots of 10^5 cells were added to a 25 cm^2 tissue culture flask (Corning). After 24 hours of growth, cells were washed with calcium and magnesium free Hank's balanced salt solution (HBSS) (Gibco BRL), the defined serum-free media (DM), DMEM supplied with 4.0 μg/ml transferrin (Human, Gibco BRL), 0.5 U/ml Lente insulin (beef and pork, Connaught Novo Ltd., Willowdale, Ontario) and 20 mM Hepes, PH 7.2, was added to the flasks. Twelve hours later, cell locomotion was recorded by using a computerized timelapse image analysis system (Image-1, Universal Image Corporation, Westchester, Pa.) which quantitates nuclear displacement Antibody—R3 (5 μg/ml), peptide I (2 μg/ml), control rabbit IgG (5 μg/ml) or scrambled peptide I (2 μg/ml) were added to media 20 min before the beginning of filming. Images were taken with a Zeiss inverted microscope (model IM35, Zeiss) using a 10× objective every 30 min for 3 hours. A minimum of 30 cells were tracked in each above experimental condition; experiments done in triplicate.

In assay [2] the test system is macrophage cell line WEHI-3. In words: Macrophage chemotaxis to endotoxin-activated mouse serum, WEHI-3. In kind it is cell-based. How it is done: as §2
as §1, with “(1993). Briefly, a 96-well chemotaxis chamber with a lower recess large enough to hold a microtiter plate (Neuro Probe, stock#MBA96) and a 5 μm framed filter (Neuro Probe, stock#PFD5/A) were used. The microtiter plate was filled with chemoattractants and controls and placed in the recess of the chemotaxis chamber.” for “(1993).”

The test system of a further assay is smooth muscle cells. In words: Smooth muscle cell migration after wounding of monolayers. It is filed as cell-based, bovine. Conditions: peptides 2 μg/ml. The method, then: Smooth muscle cells were isolated from bovine aorta as described previously from rat aorta (Majack et al., 1984) and were maintained in Dulbecco's Modified Eagles medium (DME) supplemented with 10% fetal calf serum (FCS) and 20 mM HEPES buffer, pH 7.2 at 37° C. and 5% CO2 in air. All experiments were performed using defined medium [DME with 20 mM HEPES buffer, pH 7.2, 0.5 U/ml insulin (beef and pork zinc suspension, Novo Laboratories Ltd., Willowdale, Ontario) and 4 μg/ml transferrin (Sigma Chemical Co., St. Louis, Mo.)], and the culture medium was replaced 24 hours before filming. Wounding injury to confluent monolayers consisted of removal of half the monolayer using a cell lifter followed by the addition of fresh defined medium in the presence of either RHAMM peptide aa401-411 or the scrambled peptide of the same domain as described above.
The HA-binding region of RHAMM consists of two 10 amino acid domains located close to the carboxy terminus of the protein (Yang, 1993). A peptide mimicking Domain 1 (amino acids 401-411)—YKQKIKHVVKLK—and a scrambled peptide consisting of the same amino acids arranged in a random manner—YLKQKKVKKHIV—were synthesized. Both peptides were used at a final concentration of 2 μg/ml in locomotion assays.
Injured cell monolayers were monitored for motility using an IM 35 Zeiss inverted microscope to which a video camera (Hamamatsu CCD, Inc., Japan) was attached. The cells were maintained at 37° C. using a heated platform (TRZ 3700, Zeiss, Germany). Cell locomotion was followed by using image analysis (Image 1, Universal Imaging Corp., Westchester, Pa. This program allows quantification of nuclear displacement from a sequence of digitalized images. The motility of thirty cells in each experiment was followed for a period of 24 hours with mean velocities calculated every hour.

Assay [3] has as its system C3 fibroblasts. In words: Cell locomotion assay, timelapse image analysis of C3 fibroblasts. It is filed as cell-based, murine. Particulars: 70% confluent C3, 2 h. How it is done: For motility experiments, 10^5 cells were subcultured into 25 cm^2 tissue culture flasks (Corning), and maintained for 12 h as above. The medium was then aspirated, cells were rinsed with Hanks Balanced Salt Solution (HBSS) (Gibco) and fresh, serum-free α-MEM containing 4.0 μg/ml transferrin (Gibco) and 2.0 μg/ml insulin (Sigma) (defined medium) was added to the flasks.
Cell locomotion was recorded using a computerized timelapse analysis system (Image 1, Universal Imaging Corporation, Westchester, Pa.) that measures nuclear displacement. During the filming period, cells were maintained at 37° C. in defined-media at physiological pH.
A 10 amino acid peptide corresponding to one of the HA binding domains of RHAMM, peptide^aa423-432 (Yang et al., 1993), was synthesised and added at various concentrations (0,0.1, 1.0, 5.0, 10.0 and 50.0 ng/ml) to 70% confluent C3 fibroblasts. Cell locomotion was monitored by image analysis for 2 h from the addition of the peptide. A scrambled peptide was used as control.
RHAMM-GST fusion protein prepared and purified as described in (b) above was added at concentrations of 1 pg/ml, 1 ng/ml, 1 μg/ml and 1 mg/ml to 70% confluent C3 cultures and cell locomotion was monitored by image analysis for 2 h from protein addition as described in Example 5.
For each experiment, 30 cells were tracked every 10 min for a 1 hr period.
RHAMM-GST fusion protein, as described in (d) above, and deleted/mutated RHAMM-GST fusion protein, as described in (h) above were added at 5 ng/ml to subconfluent cultures of C3 cells and cell locomotion was monitored by image analysis for 2 h from protein addition as described in Example 5.

In assay [4] the test system is C3 fibroblasts. As to the kind of experiment: Focal adhesion formation (vinculin immunofluorescence) and cell spreading of C3 fibroblasts. It is filed as cell-based, murine. Conditions: for cells with focal adhesion staining (vinculin plaque-positive cells): 100 ng/mL. The method, then: The ras-transformed 10T½ cells termed C3 (Egan et al., 1987) were grown on fibronectin coated glass coverslips for 24 hrs. The cells were then exposed to RHAMM I-2a (1 ng/ml to 1 mg/ml) for 2 hrs at 37° C. before fixing with 3% paraformaldehyde/phosphate buffered saline (PBS). Cells were then washed three times with 10% fetal calf serum PBs, permeabilized with 0.2% triton X-100/PBS for 3 min, and washed again. The coverslips were then incubated with anti-vinculin (Sigma, 1:75 dilution) or an identical concentration of nonspecific mouse IgG for 1 hr at 37° C. After washing, the coverslips were incubated with rhodamine labelled goat anti-mouse antibody (1:200, Sigma) for 2 hrs at room temperature. After further washings, the coverslips were mounted on glass slides and viewed on a Zeiss Axiovert 35 M fluorescent microscope.

“Also recorded” adds a separate entry of the source.

As for YKQKIKHVVKLK [peptide aa^401-411], the “effect on neutrophil chemotaxis to IL-8” value in the assay with Human neutrophils is reported as “completely inhibited; also recorded: significantly inhibited”. For the same molecule, the “effect on chemotaxis to endotoxin-activated mouse serum” value (with macrophage cell line S1; in assay [2]) was “inhibited” throughout. The “effect on locomotion of all cell lines” value in assay [1] is given as “reduced significantly”. Further, the figures for the “effect on rate of translocation of smooth muscle cells after wounding” value with smooth muscle cells and with smooth muscle cells (listed as Peptide aa^401-411) were “significantly reduced the rate of translocation” and “significantly inhibited the rate of translocation”, respectively.

In the case of “YLKQKKVKKHIV [scrambled peptide, same amino acids as peptide aa401-411 arranged in a random manner, reference compound]”, the “effect on rate of translocation of smooth muscle cells after wounding” value in the assay on smooth muscle cells is given as “no effect on the wounding response”.

For the molecule “peptide^aa423-432: 10 amino acid peptide corresponding to one of the HA binding domains of RHAMM (KEVELEKHIA; UniProt Q00547 423-432, looked up, fragment)”, the “concentration at which cell locomotion was significantly inhibited” value in the assay with C3 fibroblasts [3] was no less than 5 ng/mL.

B1: RHAMM I-2a-GST fusion protein: GST fusion protein of the secreted RHAMM isoform I-2a (with alternatively spliced exon 2A) (protein)
chain: MRALSLELMKLRNKRETKMRSMMVKQEGMELKLQATQKDLTESKGKIVQLEGKLVSIEKEKIDEKCETEKLLEYIQEISCASDQVEKCKVDIAQLEEDLKEKDREILSLKQSLEENITFSKQIEDLTVKCQLLETERDNLVSKDRERAETLSAEMQILTERLALERQEYEKLQQKELQSQSLLQQEKELSARLQQQLCSFQEEMTSEKNVFKEELKLALAELDAVQQKEEQSERLVKQLEEERKSTAEQLTRLDNLLREKEVELEKHIAAHAQAILIAQEKYNDTAQSLRDVTAQLESVQEKYNDTAQSLRDVTAQLESEQEKYNDTAQSLRDVTAQLESEQEKYNDTAQSLRDVTAQLESVQEKYNDTAQSLRDVTAQLESYKSSTLKEIEDLKLENLTLQEKVAMAEKSVEDVQQQILTAESTNQEYARMVQDLQNRSTLKEEEIKEITSSFLEKITDLKNQLRQQDEDFRKQLEEKGKRTAEKENVMTELTMEINKWRLLYDELYEKTKPFQQQLDAFEAEKQALLNEHGATQEQLNKIRDSYAQLLGHQNLKQKIKHVVKLKDENSQLKSEVSKLRSQLVKRKQNELRLQGELDKALGIRHFDPSKAFCHASKENFTPLKEGNPNCC
In the case of B1, the “cells being vinculin plaque positive” value in the assay with C3 fibroblasts [4] (1 ng/mL, 2 hrs) is listed as 75%. The “cells with focal adhesion staining (vinculin plaque-positive cells)” value was less than 50% in the assay with C3 fibroblasts [4] (2 hrs) and greater than 50% in the assay on C3 fibroblasts [4] (2 hrs, listed as RHAMM I-2a). The molecule further showed a vinculin plaque-positive cells in the assay on C3 fibroblasts [4] (1 mg/mL, 2 hrs) greater than 50%. In addition, the “effect on cell morphology” value in the assay on C3 fibroblasts [4] (various concentrations for 2 hours, data not shown) is recorded as “stimulate cell spreading”.
